Measured values published in PMC9736855, “Discovery of 3-Amino-1H-pyrazole-Based Kinase Inhibitors to Illuminate the Understudied PCTAIRE Family” (International Journal of Molecular Sciences, 2022).
Where “and” joins values, the source holds several entries; their conditions need not be identical. Equal entries are not always repeated. Where two headings read alike, the source gives them in different places.

How the values were obtained:
GSK3B = GSK3B (Homo sapiens, UniProt P49841); assay: DSF; format: binding; design: purchased in-house DSF panel (SGC Frankfurt); details: 10 μM compound
Procedure, shortened: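 Differential scanning fluorimetry follows unfolding of the protein through fluorescence of a dye that depends on folding state. The value is ΔTm, the melting-temperature shift between compound-free and compound-bound protein. Duplicate measurements.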

BMP2K = target: T1, BMP2K (Homo sapiens, UniProt Q9NSY1); assay: DSF; format: binding
T1 construct: purchased in-house DSF panel (SGC Frankfurt)
Protocol: (§1) Measurements were performed in duplicates.

DAPK1 = target: T2, DAPK1 (Homo sapiens, UniProt P53355); assay: DSF; format: binding
T2 construct: purchased in-house DSF panel (SGC Frankfurt)
Protocol: as §1

SLK = target: T3, SLK (Homo sapiens, UniProt Q9H2G2); assay: DSF; format: binding
T3 construct: purchased in-house DSF panel (SGC Frankfurt)
Protocol: as §1

STK39 = target: T4, STK39 (Homo sapiens, UniProt Q9UEW8); assay: DSF; format: binding
T4 construct: purchased in-house DSF panel (SGC Frankfurt)
Protocol: as §1

DCAMKL1 = target: T5, DCAMKL1 (Homo sapiens, UniProt O15075); assay: DSF; format: binding
T5 construct: purchased in-house DSF panel (SGC Frankfurt)
T5 sequence (O15075 390-647): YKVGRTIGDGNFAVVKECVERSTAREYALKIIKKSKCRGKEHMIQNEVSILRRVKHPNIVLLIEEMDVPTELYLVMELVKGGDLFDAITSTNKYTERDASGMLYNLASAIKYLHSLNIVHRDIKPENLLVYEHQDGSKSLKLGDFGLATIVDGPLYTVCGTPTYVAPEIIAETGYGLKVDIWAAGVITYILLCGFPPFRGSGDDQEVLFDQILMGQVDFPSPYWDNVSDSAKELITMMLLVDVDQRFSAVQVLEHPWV
Protocol: as §1

MARK4 = target: T6, MARK4 (Homo sapiens, UniProt Q96L34); assay: DSF; format: binding
T6 construct: purchased in-house DSF panel (SGC Frankfurt)
Protocol: as §1

OSR1 = target: T7, OSR1 (Homo sapiens, UniProt O95747); assay: DSF; format: binding
T7 construct: purchased in-house DSF panel (SGC Frankfurt)
Protocol: as §1

FLT1 = target: T8, FLT1 (Homo sapiens, UniProt P17948); assay: DSF; format: binding
T8 construct: purchased in-house DSF panel (SGC Frankfurt)
T8 sequence (P17948 801-1158): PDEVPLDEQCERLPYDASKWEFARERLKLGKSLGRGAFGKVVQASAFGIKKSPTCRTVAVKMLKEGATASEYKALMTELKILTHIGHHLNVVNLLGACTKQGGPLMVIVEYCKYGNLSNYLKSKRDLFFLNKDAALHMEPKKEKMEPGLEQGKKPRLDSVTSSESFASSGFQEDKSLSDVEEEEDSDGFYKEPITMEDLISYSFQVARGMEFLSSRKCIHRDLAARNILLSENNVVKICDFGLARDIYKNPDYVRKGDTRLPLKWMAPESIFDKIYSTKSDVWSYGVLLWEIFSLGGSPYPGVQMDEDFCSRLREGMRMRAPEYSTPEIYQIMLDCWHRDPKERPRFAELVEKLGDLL
Protocol: as §1

AAK1 = target: T9, AAK1 (Homo sapiens, UniProt Q2M2I8); assay: DSF; format: binding
T9 construct: purchased in-house DSF panel (SGC Frankfurt)
Protocol: Recombinant protein kinase domains with a concentration of 2 μM were mixed with a 10 μM compound solution in DMSO, 20 mM HEPES, pH 7.5, and 500 mM NaCl. SYPRO Orange (5000×, Invitrogen) was added as a fluorescence probe (1 µl per mL). Subsequently, temperature-dependent protein unfolding profiles were measured, using the QuantStudio™ 5 realtime PCR machine (Thermo Fisher, Waltham, MA, USA). […] The temperature was raised with a step rate of 3 °C per minute. Data points were analyzed with the internal software (Thermal Shift SoftwareTM Version 1.4, Thermo Fisher) using the Boltzmann equation to determine the inflection point of the transition curve [56]. Differences in melting temperature are given as ΔTm values in °C. Measurements were performed in duplicates.

CDK16/Cyclin Y = target: T10, CDK16/Cyclin Y (Homo sapiens, UniProt Q00536); assay: NanoBRET; format: cell-based
T10 construct: Full-length kinases were obtained as plasmids cloned in frame with a terminal NanoLuc-fusion; CS1810C178 (CCNY); host or cells: HEK293T
Procedure, shortened: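 HEK293T cells transiently expressing full-length NanoLuc-fused kinase for 20 h, treated with serially diluted inhibitor plus tracer at its KD,app. Equilibrated 2 h at 37 °C/5% CO2 before reading BRET (450/610 nm). EC50 from tracer displacement by normalized 3-parameter fit.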

[1] = Figure 7, 11-point dose-response in duplicates, read-out: NanoBRET EC50 ± SEM against CDK16

T10 sequence (Q00536 whole entry, the tested form may be a part): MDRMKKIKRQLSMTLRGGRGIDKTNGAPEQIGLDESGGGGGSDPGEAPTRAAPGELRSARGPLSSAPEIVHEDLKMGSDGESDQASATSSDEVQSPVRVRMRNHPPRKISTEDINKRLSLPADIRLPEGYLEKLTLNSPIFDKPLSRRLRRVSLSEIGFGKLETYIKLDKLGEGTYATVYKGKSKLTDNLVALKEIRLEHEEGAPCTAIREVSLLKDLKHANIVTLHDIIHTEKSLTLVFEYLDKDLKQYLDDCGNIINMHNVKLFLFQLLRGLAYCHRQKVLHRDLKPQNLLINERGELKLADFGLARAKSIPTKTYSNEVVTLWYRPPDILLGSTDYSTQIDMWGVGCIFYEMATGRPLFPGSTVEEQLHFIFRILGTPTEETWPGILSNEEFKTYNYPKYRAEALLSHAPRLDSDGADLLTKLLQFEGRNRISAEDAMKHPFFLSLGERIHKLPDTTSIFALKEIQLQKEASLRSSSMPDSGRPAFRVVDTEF
T10 sequence (Q8ND76 2-341 partner limits assumed): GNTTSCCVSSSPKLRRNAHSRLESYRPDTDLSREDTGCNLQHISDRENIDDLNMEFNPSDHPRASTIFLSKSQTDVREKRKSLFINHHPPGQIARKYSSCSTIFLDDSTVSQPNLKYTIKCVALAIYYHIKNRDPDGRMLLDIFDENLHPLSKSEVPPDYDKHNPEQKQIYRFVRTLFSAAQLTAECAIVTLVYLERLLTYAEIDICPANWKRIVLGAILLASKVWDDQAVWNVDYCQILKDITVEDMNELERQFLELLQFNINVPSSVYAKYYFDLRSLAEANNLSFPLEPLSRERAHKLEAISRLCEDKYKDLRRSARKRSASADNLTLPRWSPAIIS
T2 sequence (P53355 1-285): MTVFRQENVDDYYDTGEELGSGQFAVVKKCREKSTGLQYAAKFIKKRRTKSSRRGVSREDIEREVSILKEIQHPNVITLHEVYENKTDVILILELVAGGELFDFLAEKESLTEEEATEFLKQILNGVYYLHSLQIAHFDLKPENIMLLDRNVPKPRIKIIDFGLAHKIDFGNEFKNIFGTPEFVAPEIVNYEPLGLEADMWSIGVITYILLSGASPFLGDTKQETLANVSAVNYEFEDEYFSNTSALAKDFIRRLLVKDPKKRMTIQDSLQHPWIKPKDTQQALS
T1 sequence (Q9NSY1 38-345): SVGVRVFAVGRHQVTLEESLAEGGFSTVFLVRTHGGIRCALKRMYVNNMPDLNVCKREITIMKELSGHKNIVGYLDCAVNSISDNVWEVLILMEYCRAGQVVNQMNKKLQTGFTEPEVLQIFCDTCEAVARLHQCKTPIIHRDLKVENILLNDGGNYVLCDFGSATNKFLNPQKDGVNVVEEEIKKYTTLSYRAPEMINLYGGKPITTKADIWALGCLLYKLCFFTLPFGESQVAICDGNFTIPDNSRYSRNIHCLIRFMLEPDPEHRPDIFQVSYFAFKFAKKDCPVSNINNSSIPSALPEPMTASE
T9 sequence (Q2M2I8 27-365): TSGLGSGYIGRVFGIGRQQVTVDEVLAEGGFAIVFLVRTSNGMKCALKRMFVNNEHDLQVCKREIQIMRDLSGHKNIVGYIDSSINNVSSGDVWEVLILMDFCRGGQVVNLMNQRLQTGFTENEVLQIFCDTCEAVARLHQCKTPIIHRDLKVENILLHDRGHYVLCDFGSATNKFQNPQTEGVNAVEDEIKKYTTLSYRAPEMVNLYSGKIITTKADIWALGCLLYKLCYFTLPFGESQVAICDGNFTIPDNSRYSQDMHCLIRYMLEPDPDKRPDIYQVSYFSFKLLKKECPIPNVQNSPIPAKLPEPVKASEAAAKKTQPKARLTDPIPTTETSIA
T6 sequence (Q96L34 59-310): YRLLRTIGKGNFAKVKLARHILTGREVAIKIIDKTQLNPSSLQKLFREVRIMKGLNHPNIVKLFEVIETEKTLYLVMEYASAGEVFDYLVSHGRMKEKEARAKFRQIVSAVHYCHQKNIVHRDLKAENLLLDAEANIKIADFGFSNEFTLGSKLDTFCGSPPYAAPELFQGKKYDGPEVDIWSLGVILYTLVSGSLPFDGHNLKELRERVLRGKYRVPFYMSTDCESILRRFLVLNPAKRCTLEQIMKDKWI
Sequence of GSK3B (P49841 35-386): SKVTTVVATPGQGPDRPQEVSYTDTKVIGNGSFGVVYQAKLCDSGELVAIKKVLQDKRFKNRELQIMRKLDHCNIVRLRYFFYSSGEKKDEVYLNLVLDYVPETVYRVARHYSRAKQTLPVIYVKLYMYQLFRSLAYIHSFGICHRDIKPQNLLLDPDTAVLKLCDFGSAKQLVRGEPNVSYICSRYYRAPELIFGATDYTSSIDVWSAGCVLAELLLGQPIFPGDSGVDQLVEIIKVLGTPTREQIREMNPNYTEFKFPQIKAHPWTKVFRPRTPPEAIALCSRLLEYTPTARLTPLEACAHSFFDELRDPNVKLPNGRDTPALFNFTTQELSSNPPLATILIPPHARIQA
T7 sequence (O95747 1-303): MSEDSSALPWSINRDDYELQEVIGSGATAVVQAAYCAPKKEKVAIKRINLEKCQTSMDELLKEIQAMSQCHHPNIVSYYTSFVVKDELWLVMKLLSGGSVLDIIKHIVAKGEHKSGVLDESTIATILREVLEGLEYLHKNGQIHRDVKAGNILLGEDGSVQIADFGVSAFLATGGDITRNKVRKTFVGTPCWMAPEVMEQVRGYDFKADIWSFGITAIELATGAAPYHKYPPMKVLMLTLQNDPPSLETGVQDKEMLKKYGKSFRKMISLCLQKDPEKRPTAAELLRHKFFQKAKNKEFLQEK

SMILES | ΔTm at 10 µM (GSK3B) [°C] | ΔTm BMP2K (BMP2K) [°C] | ΔTm DAPK1 (DAPK1) [°C] | ΔTm SLK (SLK) [°C] | ΔTm STK39 (STK39) [°C] | ΔTm DCAMKL1 (DCAMKL1) [°C] | ΔTm MARK4 (MARK4) [°C] | ΔTm OSR1 (OSR1) [°C] | ΔTm FLT1 (FLT1) [°C] | ΔTm AAK1 (AAK1) [°C] | EC50 (CDK16/Cyclin Y; [1]) | EC50 (CDK16/Cyclin Y; CDK family profiling, Table S5, read-out: NanoBRET EC50 ± SEM CDK16/Cyclin Y) [nM]
CC(C)OC(=O)c1cc(Nc2ccnc(NCc3ccc(NC(=O)OC(C)(C)C)cc3)n2)n[nH]1 [42d, isopropyl 3-((2-((4-((tert-butoxycarbonyl)amino)benzyl)amino)pyrimidin-4-yl)amino)-1H-pyrazole-5-carboxylate] | 4.7 | 1.4 | -0.3 | -0.6 | -0.6 | -2.4 | 0.3 | -0.8 | 0.6 | 0.5 | 44 nM | 
CN[C@@H]1C[C@H]2O[C@@](C)([C@@H]1OC)n1c3ccccc3c3c4c(c5c6ccccc6n2c5c31)C(=O)NC4 [staurosporine, reference compound] |  | 19.1 | 9.8 | 18.0 | 9.6 | 12.4 | 16.4 | 7.7 | 13.6 |  |  | 
COC(=O)c1cc(Nc2ccnc(NCc3ccc(NC(=O)OC(C)(C)C)cc3)n2)[nH]n1 [21i, methyl 5-((2-((4-((tert-butoxycarbonyl)amino)benzyl)amino)pyrimidin-4-yl)amino)-1H-pyrazole-3-carboxylate] | 7.2 | 2.8 | 0.6 | 0.2 | 2.1 | -0.6 | 3.3 | 0.6 | 2.2 | 2.0 | 380 nM | 
CC(C)(C)OC(=O)Nc1ccc(CNc2nccc(Nc3cc(C(=O)OC(C)(C)C)[nH]n3)n2)cc1 [43d, tert-butyl 3-((2-((4-((tert-butoxycarbonyl)amino)benzyl)amino)pyrimidin-4-yl)amino)-1H-pyrazole-5-carboxylate] | 2.9 | 1.7 | -0.4 | 0.1 | -0.9 | -2.1 | -0.5 | -0.4 | 0.9 | 1.0 | 33 nM and 33.4 nM | 
COC(=O)c1cc(Nc2ccnc(NCCOCCNC(=O)OC(C)(C)C)n2)[nH]n1 [21d, methyl 5-((2-((2-(2-((tert-butoxycarbonyl)amino)ethoxy)ethyl)amino)pyrimidin-4-yl)amino)-1H-pyrazole-3-carboxylate] | 6.2 | 5.7 | -2.4 | 1.0 | 1.8 | 1.5 | 1.7 | 0.3 | 2.0 | 4.1 | 1370 ± 306 nM | 
N#CCc1ccc(Nc2nccc(Nc3cc(C4CC4)[nH]n3)n2)cc1 [compound 1, reference compound] | 14 | 18.8 | 4.9 | 8.8 | 7.6 | 8.9 | 8.2 | 5.6 | 10.6 | 13.8 |  | 14.6 ± 5.5
